Literature values, collected in paper PMC12440824, “Chimeric deubiquitinase engineering reveals structural basis for specific inhibition of the mitophagy regulator USP30” (Nature Structural & Molecular Biology, 2025).
Like-named read-outs stand apart in the source and are kept apart here.

Key:
[1] = system: USP30; set-up: method as in Extended Data Fig. 1; conditions: ref Extended Data Fig. 1; read-out: Tetra-Ub cleavage IC50; cited from earlier work
[2] = system: recombinant USP30; conditions: literature values in Extended Data Fig. 1; ref Extended Data Fig. 1; read-out: Ub-Rho IC50; cited from earlier work
[3] = system: USP30; conditions: literature values in Fig. 1b / Extended Data Fig. 1; ref Extended Data Fig. 1; read-out: Cellular ABPP IC50; cited from earlier work

| SMILES | IC50 [1] | IC50 [2] | IC50 [3] |
| --- | --- | --- | --- |
| C=C1C(=O)C23CCC1CC2C12CCCC(C)(COC1=O)C2CC3O (stereo not shown) [S3] | 10 to 50 µM |  |  |
| N#Cc1cccc(-c2nnc(C(=O)NC3CC(CF)N(C#N)C3)o2)c1 (stereo not shown) [Example 3] |  | 0.013 µM |  |
| CC(C)(C)NS(=O)(=O)c1cccc2c(NC(=O)[C@H](Cc3ccccc3)NC(=O)C3CCCCC3)cccc12 [MF-094] |  | 0.12 µM | < 0.2 µM |
| N#CN1CC[C@@H](NC(=O)c2cc(-c3ccccc3Oc3ccccc3)n[nH]2)C1 [FT385] |  | 0.002 µM | ~0.06 µM |
| COc1cc(NC(=O)[C@H](Cc2ccccc2)NC(=O)c2ccc(F)cc2)ccc1S(=O)(=O)NC1CCOCC1 [I-150] |  | < 0.05 µM |  |
